# Source: patent US10690666B2, “Methods and compositions for modulating TH-GM cell function” (National University of Singapore, priority 2014, dated 2020)
# Tested on: AIA mice
# Assay: Antigen-induced arthritis (AIA) model
# Format: in vivo, mouse
# Description: FIGS. 25A-25E depict distinguishable effects of GM-CSF and TNF-α in mouse AIA. […] Data are representative of more than three independent experiments. Representative images of joint sections stained with H&E (FIG. 25C) or Safranin-O/Fast Green (FIG. 25D) at day 7 after arthritis induction as in FIG. 25C. Bars, 500 μm (FIG. 25C upper panels and FIG. 25D) or 100 μm (FIG. 25C lower panels). Arrow in upper panels (FIG. 25C) indicated bone destruction. In FIG. 25E, serum concentrations of GM-CSF, IFN-γ and TNF-α in Stat5^+/+ and Stat5−/− AIA mice were quantified by ELISA. Statistics of n>=8 per group were shown. *p<0.05, **p<0.01, ***p<0.001.
# FIGS. 28A-28G depicts STAT5-regulated GM-CSF-producing TH cells are crucial for AIA. Spleens and synovial tissues were collected from Stat5^+/+ and Stat5^−/− mice at day 7 after arthritis induction. (FIG. 28A) Splenic fractions of wild-type AIA mice (n=3) were stimulated under indicated conditions for 18 h. GM-CSF levels in supernatant were quantified by ELISA. (FIGS. 28B-28D) Intracellular staining and flow cytometry of GM-CSF, IL-17 and IFN-γ in splenic CD4^+CD44^hi effector T cells (FIG. 28B) or in synovial infiltrating CD4^+ T cells (FIGS. 28C and 28D) after restimulation for 4 h with PMA/Ionomycin in the presence of Golgiplug. Representative images and statistics of n=5 (FIG. 28B, right panels) or n=3 (FIG. 28D, right panels) per group were shown. Data represent two independent experiments. (FIG. 28E) Protein expression of several proinflammatory cytokines in synovial tissues was measured by ELISA. (FIGS. 28F and 28G) Representative images of joint sections stained with H&E (FIG. 28F) or Safranin-O/Fast Green (FIG. 28G) at day 7 after intraarticular injection of mBSA alone to the right knee joints and mBSA supplemented with GM-CSF to the left knee joints. Bars, 500, 50 or 200 μm as indicated. Data represent two independent experiments.*p<0.05, **p<0.01, p<0.05, **p<0.01, ***p<0.001; ns, not significant. “Splenocytes” represent the left-most bars in each group, “splenocytes depleted of CD4+ T cells” represent the middle bars in each group, and “CD4+ T cells” represent the right-most bars in each group.
# FIGS. 31A-31D depicts SAT5-induced GM-CSF expression mediates CD11b^+ cell accumulation in inflamed synovial tissues. (FIG. 31A) The frequencies of CD11b^+ cells in spleens of Stat5^+/+ and Stat5^−/− AIA mice were analyzed by flow cytometry. Statistics of n=3 per group (right panel) were shown. (FIG. 31B) Synovial tissues were harvested from Stat5^+/+ and Stat5^−/− mice at day 7 after arthritis induction, and dissociated into single cell suspensions. The percentage of CD11b^+ myeloid cells among CD45^+ fraction was analyzed by flow cytometry. Statistics of n=5 per group were shown in right panel. […]
# [1] = 100 ng intraarticular together with mBSA, day 7
substance,measurement,setting,value
GM-CSF: granulocyte macrophage colony-stimulating factor (ImmunoTools) given intraarticularly or added to cell cultures,cartilage depletion in Stat5−/− mice (Safranin-O/Fast Green),[1],severe cartilage depletion
same,synovial inflammation in Stat5−/− mice,[1],efficiently restored synovial inflammation
same,neutrophil accumulation in synovial compartments of STAT5-deficient mice,intraarticular administration during arthritis induction,efficiently restored neutrophil accumulation
same,synovial CD11b+ cell accumulation in STAT5-deficient mice,local administration during arthritis induction,partially restored
